Assay results published in patent publication US6440672B1, “Compositions and methods for the inhibition of MUC-5 mucin gene expression” (The Regents of the University of California, priority 1998, dated 2002).

Assays:
[1] = test system: MUC 5AC 5' regulatory region (M4-2 luciferase reporter gene construct) in HM3 cells; assay: Inhibition of smoke-induced luciferase activity in HM3 cells transfected with M4-2 reporter construct; type: cell-based, human
Source text: A DNA fragment extending from −3752 bp to +68 bp was cloned into the MluI/Smal site of the pGL3 vector (Promega). pGL3 contains a luciferase gene downstream from the Smal site. This construct, referred to as M4-2, was deposited with the American Type Culture Collection as ATCC designation 98701. M4-2 was co-transfected with pcDNA3, containing the neomycin resistance gene, into the epithelial cell line HM3. G418-selected colonies were pooled, expanded, and used in luciferase assays.
HM3 colon carcinoma cells (Kuan, et al. (1987) Cancer Res. 47:5715-5724) or NCIH292 lung carcinoma cells (Levine, et al. (1995) Am. J Respir. Disease 12:196-204) were transfected with the 4.0 Kb MUC 5AC reporter gene construct, M4-2, or the −614 construct from Example 2. Transfection was carried out essentially as described in Felgner et al. (1987), supra. In brief, 2 μl lipofectamine and 1 μg DNA were added to, approximately 5×10^6 cells in 100 μl of Optimen (Gibco) and incubated at room, temperature for about 30 minutes. The mixture was then diluted to 1 ml and added to one culture well of a 6 well plate. G418-selected colonies were pooled, expanded and used in luciferase assays.
Environmental tobacco smoke was used as a mucomone. Culture medium DME-F 12 (Dulbecco's Modified Eagle's:Haam's F12 at 1:1) was exposed to tobacco smoke at various concentrations, for 6 hours. Exposure of the medium was carried out in open culture dishes in an enclosed container into which tobacco smoke produced by burning cigarettes was introduced in a controlled manner. Smoke concentration was measured in units of total suspended particles/ml (TSP/ml). Transfected cells were transferred into the smoke-exposed medium (in 6-well plates, 5×10^5 cells per well) and incubated for various times. The cells were then harvested, lysed and the luciferase activity determined as described in Li et al. (1997).
Several possible inhibitors of mucomone-induced mucin production were tested for their effect on the smoke induced luciferase activity described in Example 3. Inhibitors tested included the inhibitors Genistein (Calbiochem), anti-MEK (PD98059; Alessi et al. 1995), PKC-I (Bisindolymaleimide) and PKA-l (KT 5720, Calbiochem). HM3 cells transfected with the 4.0 KB MUC 5AC construct, M4-2, were incubated in smoke-exposed medium as described in Example 3. The inhibitors were added to the cells at the concentrations indicated in Table 2 for various times before the cells were transferred to the smoke medium. Additional inhibitor was added to the smoke medium after the cells were transferred.

[2] = test system: MUC 2 gene transcription in epithelial cells; settings: epithelial cells pre-incubated with inhibitor; cited from earlier work

CN(C)CCCn1cc(C2=C(c3c[nH]c4ccccc34)C(=O)NC2=O)c2ccccc21 [Bisindolymaleimide]
relative luciferase activity (RLA) induced by smoke medium, with vs without inhibitor ([1]; Bisindolymaleimide 2.5 nM to 10 nM, added 1 hr before smoke medium): lower

O=c1c(-c2ccc(O)cc2)coc2cc(O)cc(O)c12 [Genistein]
relative luciferase activity (RLA) induced by smoke medium, with vs without inhibitor ([1]; Genistein 30 μM, added 30 min-2 hr before smoke medium): lower | effect of pre-incubation on the PA LPS-induced increase in MUC 2 transcription [2]: abolished the increase in transcription

COc1cccc(-c2cc(=O)c3ccccc3o2)c1N [PD98059]
relative luciferase activity (RLA) induced by smoke medium, with vs without inhibitor ([1]; PD98059 50-100 μM, added 1 hr before smoke medium): lower

CCCCCCOC(=O)[C@]1(O)C[C@@H]2O[C@@]1(C)n1c3ccccc3c3c4c(c5c6ccccc6n2c5c31)C(=O)NC4 [KT 5720]
relative luciferase activity (RLA) induced by smoke medium, with vs without inhibitor ([1]; KT 5720 0.1 to 0.5 μM, added 15 min-1 hr before smoke medium): lower
